Test results from patent publication US20240327334A1, “Covalent Inhibitors As Antiviral Agents” (Enanta Pharmaceuticals, Inc., priority 2022, published 2024).

Each molecule was assayed against SARS-CoV-2 Papain-like (PLpro) protease (Severe acute respiratory syndrome coronavirus 2, UniProt P0DTD1) (assay: SARS-CoV-2 Papain-like (PLpro) protease biochemical enzyme inhibition assay (ubiquitin-fluorophore substrate, Ub-R110)). Conditions: Ub-R110 substrate; run in duplicate; read-out: PLpro IC50.

Structure (SMILES)	IC50 [nM]
N#CCCNC(=O)C(=O)NCCc1ccccc1C(=O)NC1(c2ccc3ccccc3c2)CC1 [Example 368]	> 10000
CC(C)(C)OC(=O)N1CC[C@@H](CNC(=O)C(=O)NCc2ccccc2C(=O)NC2(c3cccc4ccccc34)CC2)C1 [Example 507]	> 10000
CC(C)[C@@H](C#Cc1ccccn1)NC(=O)C(=O)NCc1ccccc1C(=O)NC1(c2ccc3ccccc3c2)CC1 [Example 207]	> 10000
Cc1nn(C)cc1-c1cc(Cl)cc(C2(NC(=O)c3ccccc3CNC(=O)C(=O)NCC#N)CC2)c1 [Example 482]	< 100
O=C(NCC#Cc1nccs1)C(=O)NCc1ccccc1C(=O)NC1(c2cccc3nc(C4CC4)ccc23)CC1 [Example 390]	< 100
C#C[C@@H](NC(=O)C(=O)NCc1ccccc1C(=O)NC1(c2ccc3nn(C)cc3c2)CC1)C(C)C [Example 91]	> 10000
N#CCNC(=O)C(=O)NCc1ccccc1C(=O)NC1(c2ccc(F)c(OC(F)(F)F)c2)CC1 [Example 309]	1000 to 10000
N#CN1CC(CCNC(=O)C(=O)NCc2ccccc2C(=O)NC2(c3cccc4ccccc34)CC2)C1 [Example 433]	1000 to 10000
N#CCNC(=O)C(=O)NCc1ccccc1C(=O)NC1(c2cc(-c3cn(C4CC4)nn3)cc(C(F)(F)F)c2)CC1 [Example 60]	100 to 1000
CC#CC(=O)NNC(=O)C(=O)NCc1ccccc1C(=O)N[C@H](C)c1cccc2ccccc12 [Example 7]	> 10000
O=C(NCC#Cc1ccc(F)cc1)C(=O)NCc1ccccc1C(=O)NC1(c2ccc3ccccc3c2)CC1 [Example 76]	> 10000
N#CCCCNC(=O)C(=O)NCc1ccccc1C(=O)NC1(c2cccc3ccccc23)CC1 [Example 412]	1000 to 10000
CC(C)[C@@H](C#Cc1ccccn1)NC(=O)C(=O)NCc1ccccc1C(=O)NC1(c2ccc3nn(C)cc3c2)CC1 [Example 204]	> 10000
CC(C)[C@@H](C#Cc1ncccc1C(F)(F)F)NC(=O)C(=O)NCc1ccccc1C(=O)NC1(c2ccc3nn(C)cc3c2)CC1 [Example 205]	> 10000
N#CN1CC[C@H](CNC(=O)C(=O)NCc2ccccc2C(=O)NC2(c3cccc4ccccc34)CC2)C1 [Example 502]	100 to 1000
N#CC1CCCN1C(=O)C(=O)NCc1ccccc1C(=O)NC1(c2cccc3ccccc23)CC1 (centres unmarked) [Example 41]	> 10000
O=C(NCC#Cc1cccnc1)C(=O)NCc1ccccc1C(=O)NC1(c2ccc3ccccc3c2)CC1 [Example 170]	1000 to 10000
Cn1ccc(C#CCNC(=O)C(=O)NCc2ccccc2C(=O)NC2(c3ccc4ccccc4c3)CC2)n1 [Example 397]	100 to 1000
N#CCNC(=O)C(=O)NCc1ccccc1C(=O)NC1(c2ccc3nc(C4CC4)ccc3c2)CC1 [Example 400]	< 100
NC(=O)N1CC[C@H]1CNC(=O)C(=O)NCc1ccccc1C(=O)NC1(c2cccc3ccccc23)CC1 [Example 501]	1000 to 10000
C[C@@H](NC(=O)c1ccccc1CNC(=O)C(=O)NCCC#N)c1cccc2ccccc12 [Example 5]	> 10000
N#CCNC(=O)C(=O)N1Cc2cccc(C(=O)NC3(c4cc(Br)cc5ccccc45)CC3)c2C1 [Example 315]	1000 to 10000
C#C[C@H](C)NC(=O)C(=O)NCc1ccccc1C(=O)NC1(c2ccc3ccccc3c2)CC1 [Example 164]	1000 to 10000
N#CCNC(=O)C(=O)NCc1ccccc1C(=O)NC1(c2cc(Cl)cc(-c3cnc(C(F)(F)F)nc3)c2)CC1 [Example 72]	100 to 1000

Structure (SMILES)	IC50 [nM]
N#CCNC(=O)C(=O)NCc1ccccc1C(=O)NC1(c2cc(-c3ccccc3)cc(C(F)(F)F)c2)CC1 [Example 468]	100 to 1000
COC(=O)/C=C/CNC(=O)C(=O)NCc1ncoc1C(=O)N[C@H](C)c1cccc2ccccc12 [Example 364]	> 10000
N#Cc1ncc(C#CCNC(=O)C(=O)NCc2ccccc2C(=O)NC2(c3ccc4ccccc4c3)CC2)cn1 [Example 182]	> 10000
C[C@@H](NC(=O)c1ccccc1CNC(=O)C(=O)N1CCC(=O)N1)c1cccc2ccccc12 [Example 23]	> 10000
Cc1cnn(C)c1-c1cc(C(F)(F)F)cc(C2(NC(=O)c3ccccc3CNC(=O)C(=O)NCC#N)CC2)c1 [Example 474]	100 to 1000
O=C(NC/C=C1\CCOC1=O)C(=O)NCc1ccccc1C(=O)NC1(c2ccc3ccccc3c2)CC1 [Example 162]	100 to 1000
NC(=O)N1CC[C@H](CNC(=O)C(=O)NCc2ccccc2C(=O)NC2(c3cccc4ccccc34)CC2)C1 [Example 503]	1000 to 10000
N#CCNC(=O)C(=O)NCc1ccccc1C(=O)NC1(c2cc(C(F)(F)F)cc(C(F)(F)F)c2)CC1 [Example 45]	1000 to 10000
O=C(NC/C=C/c1nccs1)C(=O)NCc1ccccc1C(=O)NC1(c2ccc3ccccc3c2)CC1 [Example 583]	100 to 1000
Cn1cc2c(F)c(C3(NC(=O)c4ccccc4CNC(=O)C(=O)NCC#N)CC3)ccc2n1 [Example 332]	< 100
COC(=O)/C=C/CCNC(=O)C(=O)NC(C)c1ccccc1C(=O)N[C@H](C)c1cccc2ccccc12 (some centres unmarked) [Example 51]	> 10000
N#CCNC(=O)C(=O)NCc1ccccc1C(=O)NC1(c2ccc(Br)cc2)CC1 [Example 544]	1000 to 10000
C[C@@H](C#Cc1ccc(Cl)cc1C#N)NC(=O)C(=O)NCc1ccccc1C(=O)NC1(c2ccc3nn(C)cc3c2)CC1 [Example 113]	< 100
CCCOC(=O)/C=C/CNC(=O)C(=O)NCc1ccccc1C(=O)NC1(c2cccc3ccccc23)CC1 [Example 552]	100 to 1000
C[C@@H](NC(=O)c1ccccc1CNC(=O)C(=O)NCC#N)c1cc(-c2ccccc2)cc(C(F)(F)F)c1 [Example 34]	< 100
C=CC(=O)NNC(=O)C(=O)Nc1ccccc1C(=O)N[C@H](C)c1cccc2ccccc12 [Example 27]	> 10000
COc1cc(C2(NC(=O)c3ccccc3CNC(=O)C(=O)NCC(O)C(F)(F)F)CC2)cc2cn(C3CC3)nc12 (centres unmarked) [Example 513]	> 10000
COC(=O)/C=C/CCNC(=O)C(=O)NCC1C[C@@H]1C(=O)N[C@H](C)c1cccc2ccccc12 (some centres unmarked) [Example 19]	> 10000
C[C@@H](C#Cc1ccc(C#N)cc1OC(F)(F)F)NC(=O)C(=O)NCc1ccccc1C(=O)NC1(c2ccc3ccccc3c2)CC1 [Example 208]	> 10000
O=C(NC/C=C/c1cnccn1)C(=O)NCc1ccccc1C(=O)NC1(c2ccc3ccccc3c2)CC1 [Example 580]	100 to 1000
N#CCNC(=O)C(=O)NCc1ccccc1C(=O)NC1(c2cc(Oc3ccccc3)cc(C(F)(F)F)c2)CC1 [Example 68]	> 10000
O=C(C#CCNC(=O)C(=O)NCc1ccccc1C(=O)NC1(c2cc(-c3cccs3)cc(C(F)(F)F)c2)CC1)NC1CC1 [Example 522]	100 to 1000
COC(=O)/C=C/CNC(=O)C(=O)NCc1ccccc1C(=O)NC1(c2ccc3ccccc3c2)CC1 [Example 43]	< 100
N#CCNC(=O)C(=O)NCc1ccccc1C(=O)NC1(c2cc(C(F)(F)F)ccc2Cl)CC1 [Example 377]	100 to 1000

Structure (SMILES)	IC50 [nM]
C=C(CNC(=O)C(=O)NCc1ccccc1C(=O)N[C@H](C)c1cccc2ccccc12)C(=O)O [Example 42]	> 10000
CC(NC(=O)C(=O)NCC#N)c1ccccc1C(=O)N[C@H](C)c1cccc2ccccc12 (some centres unmarked) [Example 50]	> 10000
C[C@@H](NC(=O)c1ccccc1CNC(=O)C(=O)NCC/C=C/P(=O)(O)O)c1cccc2ccccc12 [Example 13]	> 10000
CC(C)(C)OC(=O)N1CCC[C@@H]1CNC(=O)C(=O)NCc1ccccc1C(=O)NC1(c2cccc3ccccc23)CC1 [Example 506]	> 10000
COc1cccc(Oc2cc(C(F)(F)F)cc(C3(NC(=O)c4ccccc4CNC(=O)C(=O)NCC#N)CC3)c2)c1 [Example 64]	> 10000
N#CCNC(=O)C(=O)NCCc1ccccc1C(=O)NC1(c2ccc3ccccc3c2)CC1 [Example 372]	> 10000
N#CCNC(=O)C(=O)NCc1ccccc1C(=O)NC1(c2cc(C(F)(F)F)ccc2F)CC1 [Example 371]	1000 to 10000
N#C[C@@H]1CCN1C(=O)C(=O)NCc1ccccc1C(=O)NC1(c2cccc3ccccc23)CC1 [Example 119]	1000 to 10000
Cn1ccc2c(C3(NC(=O)c4ccccc4CNC(=O)C(=O)NCC#N)CC3)cccc21 [Example 533]	100 to 1000
N#CCCCCNC(=O)C(=O)NCc1ccccc1C(=O)NC1(c2cc(Br)cc3ccccc23)CC1 [Example 421]	1000 to 10000
N#CCNC(=O)C(=O)NCc1ccccc1C(=O)NC1(c2cccc3ccccc23)COC1 [Example 96]	> 10000
N#Cc1ccc(C#CCNC(=O)C(=O)NCc2ccccc2C(=O)NC2(c3ccc4ccccc4c3)CC2)c(C(F)(F)F)c1 [Example 95]	100 to 1000
N#CCNC(=O)C(=O)NCc1ccccc1C(=O)NC1(c2ccnc3ccccc23)CC1 [Example 407]	< 100
COc1cc(C2(NC(=O)c3ccccc3CNC(=O)C(=O)NC/C=C/c3cnccn3)CC2)cc2cn(C3CC3)nc12 [Example 579]	100 to 1000
O=C(C#CCNC(=O)C(=O)NCc1ccccc1C(=O)NC1(c2cc(-c3cnn(C4CC4)c3)cc(C(F)(F)F)c2)CC1)NC1CC1 [Example 534]	100 to 1000
CN1CCC(n2cc(-c3cc(F)cc(C4(NC(=O)c5ccccc5CNC(=O)C(=O)NCC#Cc5cnc(F)nc5)CC4)c3)cn2)CC1 [Example 256]	< 100
CNC(=O)/C=C/CNC(=O)C(=O)NCc1ccccc1C(=O)N[C@H](C)c1cccc2ccccc12 [Example 16]	1000 to 10000
C[C@@H](NC(=O)c1ccccc1CNC(=O)C(=O)NC/C=C/C(=O)NC(C)(C)CO)c1cccc2ccccc12 [Example 551]	1000 to 10000
C[C@@H](NC(=O)c1ccccc1CNC(=O)C(=O)NCC#N)c1cc(-c2ccsc2)cc(C(F)(F)F)c1 [Example 466]	> 10000
COC(=O)/C=C/CNC(=O)C(=O)NCC1C[C@H]1C(=O)N[C@H](C)c1cccc2ccccc12 (some centres unmarked) [Example 18]	1000 to 10000
CC(C)(O)/C=C/c1cc(C2(NC(=O)c3ccccc3CNC(=O)C(=O)NCC#N)CC2)c2ccccc2c1 [Example 422]	< 100
COc1cc(C2(NC(=O)c3ccccc3CNC(=O)C(=O)NC[C@@H]3CCN3)CC2)cc2cn(C3CC3)nc12 [Example 512]	1000 to 10000
C#CCNC(=O)C(=O)NCc1ccccc1C(=O)NC1(c2cccc3c2ccn3C)CC1 [Example 530]	100 to 1000
